Reference: PubChem BioAssay AID488890 (Southern Research Specialized Biocontainment Screening …, 2010)
Inconclusive results are not listed. Calls of active or inactive are those of the source. How the calls were made is not given here.

These compounds were tested on Mycobacterium tuberculosis non-replicating, growth inhibition (assay: growth inhibition of non-replicating M. tuberculosis (AID 488890)).

| Compound | IC50 |
| --- | --- |
| O=C1Nc2cc(C(=O)NCCN3CCCCCC3)ccc2S/C1=C\c1ccccc1 | 12.5 µM (inactive) |
| O=C(OCc1nnc(-c2ccccc2)o1)c1ccc(Br)o1 | 9.14 µM |
| CC(C)(C)c1ccc2c(c1)OC(C(=O)N/N=C\c1ccccn1)CO2 (stereo unspecified) | 4.8 µM |
| COC(=O)CCSCc1cn2cc(Cl)ccc2n1 | 32 µM (inactive) |
| CCn1cc(C(=O)NC(C)C23CC4CC(CC(C4)C2)C3)cn1 (stereo unspecified) | 2.73 µM |
| CC(=O)c1ccc(NC(=O)C(Cc2ccccc2)n2cccc2)cc1 (stereo unspecified) | 12.5 µM (inactive) |
| S=C1NC2(CCCC2)N=C1c1ccccc1 | 12.4 µM (inactive) |
| CCCC(NCC(O)COc1ccc(-c2ccccc2)cc1)c1ccccc1 (stereo unspecified) | 10.7 µM (inactive) |
| O=S1(=O)N=C(N/N=C/C=C/c2ccccc2)c2ccccc21 | 8.69 µM |
| CC1(c2nnc(-c3ccccc3)o2)CC(c2ccc(Cl)cc2)=NO1 (stereo unspecified) | 1.52 µM |
| CCOC(=O)c1c(C)nc2c3ccccc3ccn12 | 13.3 µM (inactive) |
| CCOC(=O)C1=C(C)C/C(=N\NC(=O)c2ccccc2O)CC1 | 4.22 µM |
| CC(C)C1O/C(=N/C(=O)Nc2ccc(Cl)c(Cl)c2)NC1=O (stereo unspecified) | 4.76 µM |
| CC(C)(C)c1ccc(OCCC(=O)OCC(=O)NC2CCCCC2)cc1 | 9.3 µM |
| O=C(Nc1nnc(C2CC2)o1)c1ccc(S(=O)(=O)N2CCCCC2)cc1 | 29.8 µM (inactive) |
| CCOC(=O)C1CCN(C(=O)COc2cc(C)c(Br)c(C)c2)CC1 | 18.3 µM (inactive) |
| Cc1ccc(C(=O)N/N=C/c2ccc([N+](=O)[O-])s2)cc1 | 2.14 µM |
| O=C(OCCCCN1C(=O)c2ccccc2C1=O)c1ccc(Br)o1 | 6.06 µM |
| O=C(CCc1ccccc1F)N1CCN(c2ccccc2)CC1 | 2.08 µM |
| CCc1ccc(NC(=O)CCc2ccc(C)o2)cc1 | 9.6 µM |
| CC1N(C)c2cccc3cccc(c23)N1C | 36.8 µM (inactive) |
| CCCn1nnnc1NC(=O)c1cc(Cl)ccc1Cl | 6.8 µM |
| CCN(CC)Cc1ccc(NC(=O)c2sc3cc(Cl)ccc3c2Cl)cc1 | 11.2 µM (inactive) |
| Cc1onc(-c2ccccc2)c1C(=O)Nc1nnc(COc2ccc(Cl)cc2)s1 | 8.2 µM |

| Compound | IC50 |
| --- | --- |
| O=C(Nc1cccc(NC(=O)c2cccs2)c1)c1ccc([N+](=O)[O-])o1 | 5.43 µM |
| Cc1ccc(NC(=O)c2noc(C(C)C)c2[N+](=O)[O-])cc1 | 19.3 µM (inactive) |
| O=C(COc1ccc2ccccc2c1)N1CCCC1 | 14.7 µM (inactive) |
| COc1ccc(OC(=O)c2cc3ccccc3o2)cc1 | 18.4 µM (inactive) |
| COc1ccc(C(=O)Oc2cccc3cccnc23)cc1S(=O)(=O)N1CCOCC1 | 1.19 µM |
| O=C(Nc1sc2c(c1C(=O)O)CCCC2)c1ccc(F)cc1 | 24.3 µM (inactive) |
| O=C(NCCC1=CCCCC1)c1ccc(Br)o1 | 2.31 µM |
| Cc1nn(-c2nc3ccccc3[nH]2)c(N)c1-c1ccc(Cl)cc1 | 4.88 µM |
| O=C(OCC(=O)N1CCCC1)c1cc(Br)ccc1Cl | 6.94 µM |
| Cc1cc2nc(CSc3ccc(Cl)cc3)cc(=O)n2[nH]1 | 14.8 µM (inactive) |
| CC(C)NC(=O)C1COc2ccccc2O1 (stereo unspecified) | 36.5 µM (inactive) |
| O=C1CCCCC1Sc1nnc(-c2ccc3c(c2)OCO3)o1 (stereo unspecified) | 1.83 µM |
| CCC(=O)c1ccc(OCC(=O)OCC(=O)c2cc(C)n(C3CC3)c2C)cc1 | 7.97 µM |
| O=C(N/N=C\c1ccco1)c1cncc(Br)c1 | 38.1 µM (inactive) |
| CCCn1nnnc1NC(=O)c1ccc2ccccc2c1 | 3.46 µM |
| O=C(COC(=O)c1cc(Cl)ccc1O)c1ccc2c(c1)OCO2 | 6.61 µM |
| CC1=CN2C(=N)/C(=C/c3ccc([N+](=O)[O-])o3)C(=O)N=C2S1 | 12.8 µM (inactive) |
| On1onc2c3cc(-c4ccccc4)nc3ccc21 | 0.31 µM |
| Cc1ccc(-c2nn(-c3ccccc3)cc2/C=N/NC(=O)c2ccncc2)o1 | 6.11 µM |
| C/C(=N\NC(=O)CCc1ccccc1)C1C(=O)c2ccccc2C1=O | 0.25 µM |
| O=C(CN1CCC(Cc2ccccc2)CC1)NC(=O)NC1CCCCC1 | 19 µM (inactive) |
| CC(=O)OCCNc1cc(SCc2ccco2)c2nonc2c1[N+](=O)[O-] | 3.04 µM |
| Cc1ccc(CC(=O)N2CCN(c3ccc([N+](=O)[O-])cc3)CC2)cc1 | 16 µM (inactive) |
| O=C(N/N=C/c1ccccn1)c1cccc([N+](=O)[O-])c1 | 3.91 µM |

| Compound | IC50 |
| --- | --- |
| COc1ccc(N2C(=O)C(F)(F)C2c2cccc(F)c2)cc1 (stereo unspecified) | 2.15 µM |
| N=C1/C(=C\c2coc3ccccc3c2=O)C(=O)N=C2SC=CN12 | 21.4 µM (inactive) |
| Cc1nnc(N/N=C/c2cccc(OCc3ccc(Cl)c(Cl)c3)c2)n1N | 3.37 µM |
| CCOC(=O)c1c(NC(=O)C2COc3ccccc3O2)sc2c1CC(C)(C)NC2(C)C (stereo unspecified) | 18.3 µM (inactive) |
| O=C(OCc1cccc(F)c1)c1ccc2c(=O)n3c(nc2c1)CCC3 | 8.62 µM |
| O=C(Nc1nnc(-c2ccc(Cl)cc2)o1)c1nc2ccccc2s1 | 0.25 µM |
| CCOC(=O)N1CCC(NS(=O)(=O)c2cc3c(cc2Cl)NC(=O)CO3)CC1 | 4.67 µM |
| O=[N+]([O-])c1ccc(CN2CCN(c3ccc(F)cc3)CC2)o1 | 0.45 µM |
| COC(=O)c1ccc2c(c1O)C(=O)c1ccccc1C2=O | 1.44 µM |
| Cc1noc2ncnc(Sc3ccccc3Cl)c12 | 16.4 µM (inactive) |
| COc1cccc(-c2nnc(NC(=O)c3ccc4ncsc4c3)o2)c1 | 9.06 µM |
| Cc1cccc(N2CCN(Cc3ccc([N+](=O)[O-])o3)CC2)c1C | 2 µM |
| O=C(NC1CC2CCC1C2)C1COc2ccccc2O1 (stereo unspecified) | < 0.1 µM |
| CC(=O)c1cc2c(ccc3ccccc32)oc1=O | 15.4 µM (inactive) |
| CCC(=O)Nc1nc2ccccc2n1Cc1ccccc1Cl | 4.32 µM |
| CCOC(=O)c1cc(-c2csc(COc3ccccc3)n2)on1 | < 0.1 µM |
| CN(C)CCOc1nc(-c2ccccc2)nc2c1oc1ccccc12 | 14.3 µM (inactive) |
| CCOc1ccccc1C(=O)OCC(=O)Nc1nnc(-c2ccccc2)o1 | 21.7 µM (inactive) |
| COC(=O)C1=C(C(=O)OC)C(c2cc(Cl)ccc2O)c2sc(=O)[nH]c2S1 (stereo unspecified) | 34.9 µM (inactive) |
| N=C1/C(=C/c2ccc(OC(=O)c3ccco3)cc2)C(=O)N=C2SC=CN12 | 5.02 µM |
| Cc1ccc2c(CC(=O)OCC(=O)Nc3ccc(Cl)cn3)coc2c1 | 15 µM (inactive) |
| COc1cc(C=O)ccc1OCCOCCOc1ccc(Cl)cc1 | 27.8 µM (inactive) |
| O=C(NNC(=O)c1ncc(Cl)c(Cl)c1Cl)c1ccc(F)cc1 | 15.1 µM (inactive) |
| N/C(=N\OC(=O)CC1CCCCC1)c1ccncc1 | 6.38 µM |

| Compound | IC50 |
| --- | --- |
| CCn1c(-c2ccco2)nc2ccccc21 | 8.99 µM |
| C[C@H](NC(=O)c1[nH]cnc1C(=O)Nc1ccccc1)C(=O)OC(C)(C)C | 18.9 µM (inactive) |
| O=C(N/N=C/c1cccc2nccnc12)c1ccncc1 | 1.13 µM |
| CC(C)c1nnc(NC(=O)c2cc3cc(Br)ccc3oc2=O)s1 | 4.33 µM |
| COc1cc(N=c2ssnc2Cl)cc(OC)c1OC | 17.9 µM (inactive) |
| CCCC(=O)OCCNc1cc(Sc2nccn2C)c2nonc2c1[N+](=O)[O-] | 2.57 µM |
| CCOC(=O)c1ccsc1NC(=O)CCS(=O)(=O)c1ccccc1 | 33.8 µM (inactive) |
| CCOC(=O)c1cnc(Nc2nc3ccccc3o2)nc1CSC(=S)N1CCCCC1 | 1.49 µM |
| O=C(C/C=N\OCc1ccc([N+](=O)[O-])cc1)Nc1ccc(Cl)cc1 | 5.29 µM |
| O=C1c2ccccc2-n2c1nc1ccccc1c2=O | 2.8 µM |
| COc1ccc(OC(=O)CCc2c[nH]c3ccccc23)cc1 | 3.37 µM |
| C/C(=N\Nc1ccc(Cl)cc1)c1c(O)cc(C)oc1=O | 3.61 µM |
| CCOc1ccc(OCC(=O)Nc2ccc(OC)cc2)cc1 | 10.2 µM (inactive) |
| CCOC(=O)COc1ccc2c(c1)C(=O)CC1(CCCCC1)O2 | 0.6 µM |
| CC1CCN(CCc2nc3cc(NC(=O)COc4ccc(Cl)cc4)ccc3n2C)CC1 | 17.4 µM (inactive) |
| O=C(OCC(=O)N1CCCCC1)c1cc2ccccc2cc1O | 5.84 µM |
| COc1cc2c(cc1OC)CN(CCC(=O)c1ccc(Br)cc1)CC2 | 6.03 µM |
| O=C(N/N=C/c1cccc2cccnc12)c1ccccc1O | 3.16 µM |
| Cc1cc(Cl)ccc1OCC(=O)NNC(=O)c1cnccn1 | 6.05 µM |
| O=C1OC(/C(=C\Nc2cc(Cl)ccc2O)[N+](=O)[O-])c2ccccc21 (stereo unspecified) | 7.86 µM |
| CC(=O)n1cc(/C=C2/N=C(c3ccccc3)OC2=O)c2ccccc21 | 2.59 µM |
| CC(C)(c1ccccc1)c1ccc(OCC(O)CNC2CCN(Cc3ccccc3)CC2)cc1 (stereo unspecified) | 5.9 µM |
| CCOc1ccc(-c2cc(CCCC(=O)NCCC(C)C)no2)cc1 | 18.2 µM (inactive) |
| CCCCSc1nnc(-c2ccc(C)cc2)o1 | 0.37 µM |

| Compound | IC50 |
| --- | --- |
| CCCCNS(=O)(=O)c1ccc(OCC(=O)OC)cc1 | 15.6 µM (inactive) |
| O=C(OCC(=O)C12CC3CC(CC(C3)C1)C2)c1ccccn1 | 9.38 µM |
| O=C1NC(=O)N(CCc2ccc(F)cc2)C(=O)/C1=C/C=C/c1ccccc1 | 5.37 µM |
| CCC(=O)N1CCN(c2cc3c(cc2F)c(=O)c(C(=O)O)cn3CC)CC1 | 7.67 µM |
| O=C(N/N=C/C=C/c1ccccc1)c1ccncc1 | 0.92 µM |
| Cc1ccc(CCC(=O)Nc2ccc(C)c(C)c2)o1 | 8.63 µM |
| CC(C)(C)c1ccc(OCCCC(=O)NC2=NCCS2)cc1 | 9.76 µM |
| Cc1ccc(C(=O)Nc2nnc(C3=COCCO3)o2)cc1C | 9.19 µM |
| CCCn1c(NC(=O)c2ccc([N+](=O)[O-])o2)nc2ccccc21 | 7.64 µM |
| CSc1ccc(COC(=O)CCS(=O)(=O)c2ccc(C)cc2)cc1 | 19.2 µM (inactive) |
| CC1CCCN(CCSc2ccc(Cl)cc2)C1 (stereo unspecified) | 5.18 µM |
| COc1ccc(NC(=O)c2cc3ccccc3o2)cc1 | 5.57 µM |
| OC(CNCCc1ccc(C(F)(F)F)cc1)COc1cccc2ccccc12 (stereo unspecified) | 9.03 µM |
| Cc1ccc(NC(=O)c2ccc([N+](=O)[O-])o2)cc1C | 0.28 µM |
| O=C(CNC(=O)c1ccccc1F)OCc1csc(-c2ccccc2)n1 | 15.2 µM (inactive) |
| NC1CCN(c2c(F)cc3c(=O)c(C(=O)O)cn(C4CC4)c3c2Cl)C1 (stereo unspecified) | 0.15 µM |
| O=C(NCCC1CCCC1)c1cccs1 | 1.37 µM |
| O=C1NCC(O)=C1C=Nc1ccccc1O | 6.37 µM |
| COc1cc(CNC(C)(C)CO)cc(Br)c1OCc1ccc(Cl)cc1Cl | 10 µM (inactive) |
| O=C(COc1ccc(Nc2ccccc2)cc1)OCC(=O)N1CCCCC1 | 6.24 µM |
